One series addresses T1, Acetylcholinesterase (Mus musculus, UniProt P21836).
T1 sequence (P21836 whole entry): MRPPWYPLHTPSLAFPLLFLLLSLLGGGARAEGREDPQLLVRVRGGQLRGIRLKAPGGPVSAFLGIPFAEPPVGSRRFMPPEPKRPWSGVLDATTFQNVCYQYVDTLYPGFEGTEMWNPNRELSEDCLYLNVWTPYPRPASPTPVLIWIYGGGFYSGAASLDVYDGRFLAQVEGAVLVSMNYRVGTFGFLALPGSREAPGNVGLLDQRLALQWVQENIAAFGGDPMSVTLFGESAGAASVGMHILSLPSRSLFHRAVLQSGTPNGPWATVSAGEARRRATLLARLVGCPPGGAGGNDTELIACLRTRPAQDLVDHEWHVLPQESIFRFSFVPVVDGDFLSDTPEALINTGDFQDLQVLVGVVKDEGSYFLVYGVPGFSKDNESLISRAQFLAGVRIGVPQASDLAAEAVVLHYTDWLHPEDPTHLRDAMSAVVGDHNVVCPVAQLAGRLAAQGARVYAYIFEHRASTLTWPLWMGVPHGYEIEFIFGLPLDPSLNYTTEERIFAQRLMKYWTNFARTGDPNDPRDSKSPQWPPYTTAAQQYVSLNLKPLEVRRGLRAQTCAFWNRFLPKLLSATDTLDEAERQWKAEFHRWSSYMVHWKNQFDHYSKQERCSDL
The series can be described thus: Inhibition of AChE in Swiss mouse brain using acetylthiocholine iodide as substrate incubated for 10 mins followed by substrate addition and measured after 10 mins. In kind it is tissue-based.

In another series the target is Cholinesterase (Mus musculus, UniProt Q03311).
Series [1] can be described thus: in vitro. Conditions: PAMPA. In general terms: The PAMPA barrier holds no transporters, so it reflects passive diffusion.
Description: Fraction absorbed of the compound by PAMPA
Series [2] is described as follows: in vitro. Conditions: PAMPA. This is another data set of the same source.
Description: Effective permeability of compound incubated for 8 hrs by PAMPA
The test system of another series is Vero. The series can be described thus: cells. Conditions: Chlorocebus sabaeus, 24 h.
Another series relates to C6. The series can be described thus: cells. Conditions: Rattus norvegicus, C6, 24 h.
A further series relates to HepG2. The series can be described thus: cells. Conditions: Homo sapiens, HepG2, 24 h.
Series [3] in a line: Selectivity index, ratio of IC50 for human HepG2 cells to IC50 for inhibition of BuChE in Swiss mouse serum.
Series [4] is described as follows: Selectivity index, ratio of IC50 for rat C6 cells to IC50 for inhibition of BuChE in Swiss mouse serum.
A short description of series [5]: Selectivity index, ratio of IC50 for monkey Vero cells to IC50 for inhibition of BuChE in Swiss mouse serum.
Series [6] can be described thus: Selectivity index, ratio of IC50 for rat C6 cells to IC50 for inhibition of AChE in Swiss mouse brain.
Series [7] is described as follows: Selectivity index, ratio of IC50 for human HepG2 cells to IC50 for inhibition of AChE in Swiss mouse brain.
Series [8] can be described thus: Selectivity index, ratio of IC50 for monkey Vero cells to IC50 for inhibition of AChE in Swiss mouse brain.

pIC50: −log10 of the molar value. A value given as a limit tells only on which side of the number the result lay.

One may read the pIC50 as −log10 of the IC50, conventionally taken in molar units. The term Papp denotes a coefficient for how fast a substance crosses the barrier.

Sequence of Cholinesterase (Q03311 whole entry, the tested form may be a part): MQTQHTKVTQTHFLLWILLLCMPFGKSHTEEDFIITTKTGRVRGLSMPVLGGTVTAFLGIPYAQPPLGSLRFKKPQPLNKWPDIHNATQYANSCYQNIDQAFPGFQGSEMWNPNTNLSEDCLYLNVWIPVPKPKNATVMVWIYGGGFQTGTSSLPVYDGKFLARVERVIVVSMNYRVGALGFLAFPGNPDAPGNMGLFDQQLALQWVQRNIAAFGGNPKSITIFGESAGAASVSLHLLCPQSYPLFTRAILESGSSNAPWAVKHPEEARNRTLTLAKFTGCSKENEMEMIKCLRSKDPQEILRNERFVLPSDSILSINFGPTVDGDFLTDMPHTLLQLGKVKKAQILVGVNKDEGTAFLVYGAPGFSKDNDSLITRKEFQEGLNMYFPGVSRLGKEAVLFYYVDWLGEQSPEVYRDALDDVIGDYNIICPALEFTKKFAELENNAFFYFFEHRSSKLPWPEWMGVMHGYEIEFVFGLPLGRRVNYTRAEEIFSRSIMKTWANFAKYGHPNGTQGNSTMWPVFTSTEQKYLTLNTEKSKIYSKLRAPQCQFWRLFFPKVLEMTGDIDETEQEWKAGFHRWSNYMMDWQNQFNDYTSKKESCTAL
Description for C6: Cytotoxicity against rat C6 cells assessed as reduction in cell viability incubated for 24 hrs by MTT assay
Description for HepG2: Cytotoxicity against human HepG2 cells assessed as reduction in cell viability incubated for 24 hrs by MTT assay
Description for Vero: Cytotoxicity against monkey Vero cells assessed as reduction in cell viability incubated for 24 hrs by MTT assay

`c1ccc(-c2nc(-c3ccccc3)c(-c3ccccc3)[nH]2)cc1`: the pIC50 against Acetylcholinesterase and against Cholinesterase was under 5.00 throughout.

As for `CC1(C)O[C@H]2O[C@H](CNCCCCCCCn3c(-c4ccccc4)nc(-c4ccccc4)c3-c3ccccc3)[C@H](O)[C@H]2O1`, the pIC50 is under 5.00 on Acetylcholinesterase and 6.40 on Cholinesterase.

Take `CC1(C)O[C@H]2O[C@H](CNCCCCCCCCn3c(-c4ccccc4)nc(-c4ccccc4)c3-c3ccccc3)[C@H](O)[C@H]2O1`: the pIC50 against Acetylcholinesterase was under 5.00; against Cholinesterase, 5.89.

In the case of `CC1(C)O[C@H]2O[C@H](CNCCCCCCn3c(-c4ccccc4)nc(-c4ccccc4)c3-c3ccccc3)[C@H](O)[C@H]2O1`, the figures for the pIC50 on Acetylcholinesterase and against Cholinesterase were under 5.00 and 6.15, respectively.

As to `CC1(C)O[C@H]2O[C@H](CNCCCCn3c(-c4ccccc4)nc(-c4ccccc4)c3-c3ccccc3)[C@H](O)[C@H]2O1`, the pIC50 is under 5.00 on Acetylcholinesterase and 6.52 at Cholinesterase.

In the series “in vitro [1]”, `CC1(C)O[C@H]2[C@@H](O1)[C@@H](CNCCCCCCn1c(-c3ccccc3)nc(-c3ccccc3)c1-c1ccccc1)O[C@@H]1OC(C)(C)O[C@@H]12` yielded a Fa of 5.9%. The Papp at 8 h in the series “in vitro [2]” was 0.54 ×10⁻⁶ cm/s. For the same molecule, the pIC50 was under 3.60 in the series on Vero; under 5.00 against Acetylcholinesterase; under 3.60 in the series with C6; under 3.60 in the series with HepG2; 6.77 at Cholinesterase.

With `CC1(C)O[C@H]2O[C@H](CNCCCCCn3c(-c4ccccc4)nc(-c4ccccc4)c3-c3ccccc3)[C@H](O)[C@H]2O1`, the pIC50 with Vero was 3.94; at Acetylcholinesterase, under 5.00; in the series on C6, under 3.60; with HepG2 it was 3.93; on Cholinesterase it was 6.55.

For the molecule `CC1(C)O[C@H]2[C@@H](O1)[C@@H](CNCCCCCCCn1c(-c3ccccc3)nc(-c3ccccc3)c1-c1ccccc1)O[C@@H]1OC(C)(C)O[C@@H]12`, the “Ratio IC50” value in series [3], in series [4] and in [5] was 1400 throughout. For the same molecule, the pIC50 is under 5.00 on Acetylcholinesterase and 6.21 on Cholinesterase.

As for `CO[C@@H]1O[C@H](CNCCCCCCCn2c(-c3ccccc3)nc(-c3ccccc3)c2-c2ccccc2)[C@H]2OC(C)(C)O[C@@H]12`, the “Ratio IC50” value in series [6] was 90; in [3], 500; in [7], 90; in series [8], 90; in series [4], 500; in series [5], 500. For the same molecule, in “in vitro [1]”, the Fa was found to be 20.4%. Further, the apparent permeability coefficient (Papp) at 8 h in “in vitro [2]” amounted to 2.28 ×10⁻⁶ cm/s. Moreover, the pIC50 in the series with Vero is under 3.60; on Acetylcholinesterase, 5.56; in the series with C6 it was under 3.60; in the series on HepG2, under 3.60; at Cholinesterase, 6.30.

Regarding `CO[C@@H]1O[C@H](CNCCCCCCn2c(-c3ccccc3)nc(-c3ccccc3)c2-c2ccccc2)[C@H]2OC(C)(C)O[C@@H]12`, the pIC50 is under 5.00 at Acetylcholinesterase and 6.40 on Cholinesterase.

The molecule `CC(C)NCC(O)COc1ccc(CC(N)=O)cc1` (centres undefined) [ATENOLOL] returned a Fa in “in vitro [1]” of 100%.

The molecule `CO/N=C(\C(=O)N[C@@H]1C(=O)N2C(C(=O)O)=C(CSc3nc(=O)c(=O)[nH]n3C)CS[C@H]12)c1csc(N)n1` [CEFTRIAXONE] gave a Fa in the series “in vitro [1]” of 99.2%. For the same molecule, in the series “in vitro [2]”, the Papp at 8 h was determined as 0.38 ×10⁻⁶ cm/s.

`O=c1ccc2ccccc2o1` [COUMARIN] displayed a Fa in “in vitro [1]” of 87.9%. The molecule also had a Papp at 8 h in the series “in vitro [2]” of 26.2 ×10⁻⁶ cm/s.

With `CCn1cc(C(=O)O)c(=O)c2cc(F)c(N3CCNCC3)cc21` [NORFLOXACIN], the Fa in “in vitro [1]” turned out to be 23.5%.

`CNC(=C[N+](=O)[O-])NCCSCc1ccc(CN(C)C)o1` [RANITIDINE] returned a Fa in “in vitro [1]” of 87.3%.
